Where “and” joins values, the source holds several entries; their conditions need not be identical. Equal values may be shown once. Entries after “also recorded” stand apart in the source; their conditions may differ.
How the values were obtained:
[1] = test system: HUVEC cells; test: Co-culture of HUVEC with miR over-expressing ovarian cancer cells: miR transfer; type: cell-based
Method: (§1) Total RNA was isolated with Trizol (Invitrogen) from cells and with High Pure miRNA Isolation Kit (Roche) in accordance with manufacturer's instructions for liquid samples. Mature miRs were assessed by the single-tube TaqMan MicroRNA Assay. miR expression was normalized in cells to RNU44 and RNU48. All retrotranscriptase (RT) reactions, including no-template controls and RT minus controls, were run in a GeneAmp PCR 9600 Thermocycler (Applied Biosystems).
(§2) Each sample was tested in triplicate unless otherwise specified. MicroRNAs from medium samples were isolated. After DNase treatment (Ambion), RNA concentrations were determined with a NanoDrop (Thermo Scientific). In serum samples were normalized to U6snRNA (Applied Biosystems), as indicated. Since U6 is inconsistent, the expression levels of target miRNAs were directly normalized to total RNA (the inventors tested before the absence of miR-296-5p and miR-484 in not conditioned medium).

[2] = test system: VEGFR2; test: VEGFR2 expression in HUVEC co-cultured with miR over-expressing ovarian cancer cells; type: cell-based; conditions: HUVEC co-cultured 24 hours with miR over-expressing cells vs control
[3] = test system: SKOV-3 cells; test: In vitro sensitivity to CBDCA and Tax of miR-overexpressing cells (MTS assay); type: cell-based; conditions: overexpression of the miR in SK-OV3 cells; MTS assay 4 days later
Method: (§3) After drugs removal, cells were washed in PBS and incubated in the presence of serum for additionally 4 days. Cells viability was assessed using MTS assay (SIGMA) following manufacturer instructions. The reported IC50 values represent the mean of at least 3 independent experiments. For the evaluation of miR-484 effects on in vitro drug sensitivity parental, scramble and miR-484 expressing cells were plated in 96 wells plates (1000 cells/well) and treated with the indicated doses of CBDCA and TAX. Viability was evaluated after 4 days as described above.

[4] = test system: MDAH-2774 cells; test: as above; type: cell-based; conditions: overexpression of the miR in MDAH-2274 cells; MTS assay 4 days later
Method: as §3

[5] = test system: ovarian cancer derived cell lines; test: miR expression in stably transfected ovarian cancer cell lines and their conditioned medium (real time PCR); type: cell-based; conditions: for miR in the CM of stably transfected cells: conditioned medium; for increase of miR expression over controls after stable transfection: miR-EGFP stable transfection in ovarian cancer cells
Method: as §1, §2
Lentiviruses expressing miR-484 were produced in 293FT cell lines (Invitrogen), by calcium phosphate transfection. To this purpose, the System Biosciences (SBI, USA) miR Precursor Constructs were used, containing dual expression of the specific miR and the copGFP fluorescent marker, for simple identification and monitoring of cells positive for transfection and transduction. Conditioned media containing viruses was harvested 72 hours after transfection, and used to transduce epithelial ovarian cancer cell lines (EOC). In particular, SKOV-3 and MDAH-2774 were transduced with viruses expressing either GFP alone (called hereafter empty vector) or GFP and precursor of miR-484, and then monitored for their fluorescence expression.

[6] = test system: HGS; test: Luciferase miRNA target reporter assay and western blot; type: cell-based, human; conditions: luciferase and western blot analyses
Method: (§4) For overexpression of miR-296 and miR-484, 100 nM of pre-miR-296, pre-miR-484 and pre-negative control-2 (Ambion) was transfected into HEK293 and HUVE cells using Lipofectamine 2000 (Invitrogen). After 24 hr, cells were harvested and lysed in RIPA buffer containing protease inhibitor cocktail (Roche Diagnostic). Protein concentrations of total cell lysates were measured using a Bradford Protein Assay Dye Reagent Concentrate (Bio-Rad), and 35 μg of cell lysates was resolved on SDS-PAGE gels (Bio-Rad) and transferred to nitrocellulose followed by visualization with ECL detection reagents (Denville Scientific). The following primary antibodies were used: mouse monoclonal anti-Hgs (1:1000, Enzo Life Science), rabbit polyclonal anti-VEGF Receptor 2 (1:1000, Cell Signaling Technology), mouse monoclonal anti-VEGF-B (1:200, Santa Cruz Biotechnology), mouse monoclonal anti-a-Tubulin (1:2000, Sigma).
(§5) The 3′ UTR of the human HGS, and VEGFB genes were PCR amplified using the following primers:
(§6) and inserted into pGL3 control vector (Promega) by using Xba1 site immediately downstream from the stop codon of firefly luciferase, giving rise to the p3′UTR-HGS, and p3′UTR-VEGFB plasmids. These constructs were used to generate the p3′-UTRmut-HGS primers: […]

[7] = test system: VEGFB; test: Western blot for VEGFB in cell lines stably transduced with miR-484; type: cell-based; conditions: MDAH-2774 or SKOV-3 stably transduced with miR-484 vs scr-vector; western blot (data not shown)
[8] = test system: SKOV-3 cells; test: In vivo growth and susceptibility to Carboplatin+Taxol of xenografts expressing miR-484 (EGFP imaging); parameters: species or system nude mice; conditions: SK-OV3 cells expressing miR-484, EGFP fluorescence imaging
Method: (§7) Two approaches were used to evaluate the effects of miR-484 expression on in vivo chemosensitivity: 1) MDAH-2774 cells scrambled-miR (right flank) or miR-484 (left flank) and SKOV-3 scrambled-miR (right flank) or miR-484 (left flank) were injected and treated with intraperitoneal administration of Carboplatin (15 mg/kg) plus Taxol (5 mg/kg) twice a week, for 3 weeks. Tumor growth was follow by caliper measurement and/or by GFP visualization using the Ivis Lumina, Caliper Lifesciences. 2) Direct intratumoral delivery of lentiviruses expressing scrambled-miR (right flank) or miR484 (left flank) associated with carboplatin (15 mg/kg) plus taxol (5 mg/kg) intraperitoneal treatment.
(§8) Same was carried out with SKOV-3, except that 2.2×10^6 cells have been injected. When tumor masses became visible treatment with CBDCA (15 mg/kg) and Tax (5 mg/kg) was started. Drugs were delivered diluted in 200 ul of PBS and intraperitoneally injected twice a week, for 4 weeks. Tumor masses were measured with a caliper twice a week, for 4 weeks. Moreover, exploiting the expression of GFP fluorescent marker by the ovarian cancer cells utilized, mice have been anesthetized and tumor masses imaged by the Ivis Lumina, Caliper Lifesciences, once a week, for 4 weeks. Mice were then sacrificed and tumor masses excised and included in OCT for further analyses.

[9] = test system: MDAH-2774 cells; test: Intratumoral delivery of lentivirus expressing miR-484 with CBDCA+Tax treatment; type: in vivo, nude mice; conditions: CBDCA+Tax biweekly for 3 weeks, tumor growth after 21 days
Method: as §7

[10] = test system: HUVEC cells; test: Tube formation assay on HUVEC cells with conditioned media from miR-484 expressing ovarian carcinoma cells; type: cell-based; conditions: CM from MDAH-2774 or SK-OV3 overexpressing miR-484
Method: Wells from a 48-well plate were filled with […] of matrigel (BD, non growth factor reduced 8-10 ug/ul) and let solidify at 37° C. for 1 hour. HUVEC cells (ATCC, 1×10^5) resuspended in […] of medium were then layered onto the matrigel layer and monitored over the time for the formation of tube-like structures. Time-lapse video microscopy (Leica) was used to create a movie of this process, collecting images every 5 minutes for up to 20 hours. Media used to resuspend endothelial cells were 1—complete medium for endothelial cells, used as positive control, 2—Serum reduced medium (2%), used as negative control, 3—conditioned medium (plus 2% serum) from […] or MDAH-2774 transduced with scrambled-miR or miR-484.

[11] = test system: VEGFB; test: Luciferase miRNA target reporter assay and western blot; type: cell-based, human; conditions: luciferase and western blot analyses
Method: as §4, §5, §6

[12] = test system: SK-OV3 xenograft tumors; test: Vascular density (CD34, Chalkley eyepiece method) in xenograft tumors; type: in vivo, mice; conditions: SK-OV3 xenografts transduced with miR-484; 7 tumors
Method: (§9) Tumor sections (2 μm thick) were cut and for formalin fixed paraffin embedded sample deparaffinization was achieved trough graded alcohols. Primary antibody against CD34 was applied following manufacturer's instruction. Vascular density (CD34+) was assessed using the Chalkley eyepiece method. Whole tumor sections were scanned at low magnification under a conference microscope by two observers. Three areas with the highest vascular density (vascular hot-spots) were identified. At high magnification (×400) a 25-point Chalkley-Eyepiece graticule was applied to each hot-spot and oriented to permit the maximum number of points to hit on or within blood vessels. The mean value of the three counts represents the vascular density of the tumor.

[13] = test system: MDAH-2774 xenograft tumors; test: as above; type: in vivo, mice; conditions: MDAH-2774 xenografts transduced with miR-484; 7 tumors
Method: as §9

[14] = test system: VEGFR2; test: Luciferase and western blot after miR transfection in HUVEC cells; type: cell-based; conditions: luciferase and western blot analyses
Method: as §4

[15] = test system: MDAH-2774 cells; test: In vivo growth and susceptibility to Carboplatin+Taxol of xenografts expressing miR-484 (caliper); parameters: species or system nude mice
Method: as §7
Athymic female nude mice (8/group) were subcutaneously injected on both dorsal flanks with 100 ul of PBS containing 1.5×10^6 MDAH-2774 cells scrambled-miR (right flank) or miR-484 (left flank).
as §8

[16] = CBDCA and Tax treatment, 7 mice, miR-484 expressing tumors

miR-296: microRNA miR-296 (SEQ ID NO: 9), over-expressed via pre-miR-296 transfection or stable miR-296-EGFP transfection (AGGGCCCCCCCUCAAUCCUGU; listed as RNA, chemistry not given here; listed as Homo sapiens)
time within which secreted miR enters HUVEC cells [1]: ≤ 24 h
expression of VEGFR2 on endothelial cells [2]: significantly increase
in vitro sensitivity to CBDCA and Tax [3]: did not significantly affect
in vitro sensitivity to CBDCA and Tax [4]: did not significantly affect
miR in the CM of stably transfected cells [5]: found
increase of miR expression over controls after stable transfection [5]: ≥ 2 fold
endogenous levels of HGS [6]: modulated

miR-484: microRNA hsa-miR-484 (SEQ ID NO: 11), over-expressed via lentiviral miR precursor construct or pre-miR-484 transfection (UCAGGCUCAGUCCCCUCCCGAU; listed as RNA, chemistry not fully specified; listed as Homo sapiens)
time within which secreted miR enters HUVEC cells [1]: ≤ 24 h
VEGFB expression [7]: down-regulated
sensitivity to treatment ([8]; CBDCA+Tax): significantly increased
growth of the primary tumor [8]: did not affect
cases in which drug sensitivity increased [9]: 6/6
expression of VEGFR2 on endothelial cells [2]: significantly decrease
formation of tube like structures by HUVEC ([10]; 6 hours on 3D matrigel): impaired
formation of tube like structures by HUVEC ([10]; 20 hrs): abolished; also recorded: reduces the ability of HUVEC to properly form and maintain tube-like structures
in vitro sensitivity to CBDCA and Tax [3]: did not significantly affect
in vitro sensitivity to CBDCA and Tax [4]: did not significantly affect
miR in the CM of stably transfected cells [5]: increased
increase of miR expression over controls after stable transfection [5]: ≥ 2 fold
endogenous levels of VEGFB [11]: modulated
mean microvessel density [12]: 9±5.5 and 9
range of microvessel density [12]: 1-18
mean microvessel density [13]: 10±6.2 and 10
range of microvessel density [13]: 4-22
endogenous levels of VEGFR2 [14]: modulated
mice in which tumor volume formed by miR-expressing cells was larger than control EGFP-expressing cells ([15]; 15 days after subcutaneous inoculation, before treatment): 6/8
increase of tumor size with respect to day 0 at the end of the treatment [15, 16]: 1.3 fold
range of tumor size increase with respect to day 0 [15, 16]: 0.8-1.8 fold

From patent publication US9249468B2, “Methods and materials related to ovarian cancer” (The Ohio State University, priority 2011, dated 2016)
